Experimental data: patent US20140066373A1, “TREATING DIABETES WITH OXYTOCIN OR OXYTOCIN ANALOGS” (Albert Einstein College of Medicine of Yeshiva University, priority 2012, published 2014)
Where no end group is shown, it is not given here.

What was measured:
[1] = test system: STZ-induced diabetic mice; test: 7-day intra-third ventricle pretreatment in STZ-induced diabetic mice: GTT, fasting blood insulin, GSIS, body weight; type: in vivo, C57BL/6 mice; details: vs STZ control; for first-phase glucose-stimulated insulin secretion (GSIS): blood insulin 3 min after glucose 3 g/kg i.p.; for fasting blood insulin levels / glucose intolerance (glucose tolerance test, GTT and AUC): pretreatment twice per day for 7 days, intra-third ventricle, 1 μg per injection (1 mg [sic] for [Ser4, Ile8]-oxytocin), STZ 40 mg/kg i.p. Day 4 to Day 7
Description: (§1) Animals. C57BL/6 mice were purchased from Jackson Laboratory. All mice were housed in standard conditions. High-fat diet was purchased from Research Diets, Inc. All animal procedures were approved by the Institutional Animal Care and Use Committee. Mice were subjected to body weight measurement on a daily basis surrounding surgical procedures or drug treatments to monitor physical recovery or the effect of drug treatment on body weight.
(§2) Third ventricle cannulation and drug treatment. Third ventricle cannulation procedure was as previously described (39). An ultra-precise small animal stereotactic apparatus (Kopf Instruments) was used to perform implantation of a guide cannula into the third ventricle of anesthetized mice, at the coordinates of 1.8 mm posterior to the bregma and 5.0 mm below the skull surface. Mice were allowed 1-2 weeks for postsurgical recovery. For drug treatment. Oxytocin (Bachem Americas, Inc.), [Ser4, Ile8]-oxytocin (Bachem Americas, Inc.), [Asu1,6]-oxytocin (American Peptide Company, Inc.) or control vehicle were injected via pre-implanted guide cannula into the third ventricle of individually housed mice.
(§3) Blood tests. For glucose tolerance test (GTT), overnight-fasted mice received one-time intraperitoneal injection of glucose (2 g/kg body weight), and blood glucose levels were measured using OneTouch Ultra2 (LifeScan, Inc.). Fasting blood insulin levels were measured with Ultra Sensitive Mouse Insulin ELISA kits (Crystal Chem). Glucose-stimulated insulin secretion (GSIS) test was performed as previously described (19). Overnight-fasted mice received one-time intraperitoneal injection of glucose (3 g/kg body weight), and blood insulin levels were measured at 3 min. and 20 min. after the injection.
Next, it was investigated if oxytocin therapy may treat diabetes by counteracting its main pathological changes of pancreatic beta cell dysfunction and impaired insulin secretion. […] Experimentally, adult C57BL/6 mice on normal chow diet received intra-third ventricle implantation of cannula and postsurgical recovery. Oxytocin pretreatment was given at 1 μg per injection twice per day for 7 consecutive days via pre-implanted cannula, and non-treatment group received vehicle injections. From Day 4 to Day 7 during oxytocin treatment, mice simultaneously received intraperitoneal injections of STZ at 40 mg/kg body weight per day for 4 days to induce diabetes.
The same test strategy of pretreating mice with [Ser4, Ile8]-oxytocin was employed and then evaluating if it could attenuate the extent of STZ-induced beta cell dysfunction and diabetes. Adult chow-fed C57BL/6 mice first received intra-third ventricle injections of [Ser4, Ile8]-oxytocin at 1 mg per injection twice per day for 7 consecutive days. Non-treatment control mice received intra-third ventricle injections of vehicle instead of [Ser4, Ile8]-oxytocin. From Day 4 to Day 7 of [Ser4, Ile8]-oxytocin treatment, both treatment and control groups received intraperitoneal injections of STZ at 40 mg/kg body weight per injection per day for 4 days. The same panel of examinations were performed including glucose tolerance test, fasting blood insulin levels and glucose-stimulated insulin secretion in these mice.
Finally [Asu1,6]-oxytocin was tested for potential […] protection and anti-diabetic effects using an STZ-induced diabetic mouse model. [Asu1,6]-oxytocin pretreatment was given to adult chow-fed C57BL/6 mice via intra-third ventricle injections at 1 μg per injection b.i.d. for 7 consecutive days. Vehicle injections were given in parallel to non-treatment control group. From Day 4 to Day 7 of [Asu1,6]-oxytocin treatment, mice were subjected to STZ induction of diabetes at 40 mg/kg body weight per intraperitoneal injection per day for 4 days. Following [Asu1,6]-oxytocin and STZ treatments, mice were evaluated for glucose tolerance test, fasting blood insulin levels, and glucose-stimulated insulin secretion.

[2] = test system: HFD-induced prediabetic mouse model; test: Acute intra-third ventricle therapy in HFD-induced prediabetic (dietary obese) mice: GTT, fasting blood insulin, body weight; type: in vivo, C57BL/6 mice; details: for fasting blood insulin levels (hyperinsulinemia) / glucose intolerance (glucose tolerance test, GTT and AUC) / treatment effects compared with oxytocin at the same dose: 2-month HFD mice, intra-third ventricle; for fasting blood insulin levels (hyperinsulinemia) / glucose intolerance (glucose tolerance test, GTT and AUC): 2 μg per injection twice over overnight fasting, vs vehicle; for treatment effects compared with oxytocin at the same dose: 2 μg per injection twice, GTT and fasting insulin
Description: as §1, §2, §3
Acute oxytocin therapy reverses insulin resistance in dietary obese mice independently of body weight. […] To experimentally address whether oxytocin could have an anti-diabetic action, and independently of its anti-obesity effect, an acute oxytocin therapy paradigm was applied to dietary obese mice to avoid confounding body weight changes, so that the potential anti-diabetes effect of oxytocin could be dissected from its anti-obesity effect. Adult male C57BL/6 mice […] of high-fat diet (HFD) feeding since weaning to develop pre-diabetic glucose intolerance and hyperinsulinemia. Then these mice received third-ventricle implantation of guide cannula followed by postsurgical recovery. Oxytocin was administered via pre-implanted third-ventricle cannula at a dose of 2 μg per injection twice over an overnight fasting period, one at the starting point of fasting and the other at 30 min prior to glucose tolerance test (GTT). Mice of treatment control group received intra-third ventricle vehicle injections.
Acute [Ser4, Ile8]-oxytocin therapy improves insulin resistance in dietary obese mice independently of body weight. Having observed the anti-insulin resistance effect of oxytocin, it was next investigated whether oxytocin peptide analogs have similar or stronger treatment effect. The purpose of this experiment was two-fold. First, was to investigate whether the anti-insulin resistance action of oxytocin could be extended to oxytocin analogs. […] Existing oxytocin peptide analogs were screened. [Ser4, Ile8]-oxytocin came out of the screen as a good candidate. […] This stronger anti-insulin resistance effect of [Ser4, Ile8]-oxytocin is in line with structure-based theoretical prediction of drug effects. The substitution of glutamine at amino acid position 4 of oxytocin with serine has two direct effects on peptide function—it strengthens the α-helical structure in peptide (13), which leads to an overall structural stabilization, longer drug duration, and better protein binding property with signaling partners; it also increases the hydrophobicity of peptide, which leads to enhanced membrane permeability and improved tissue distribution. […]

[3] = test system: uterine contractile response; details: of natural oxytocin, literature report (36); cited from earlier work
type-1 diabetic patients = type-1 diabetic patients (28); cited from earlier work
normal rats = details: central or peripheral administration; normal rats (5); cited from earlier work
normal men = normal men (29); cited from earlier work
obesity = details: cited from earlier work

Row | Molecule | first-phase glucose-stimulated insulin secretion (GSIS) ([1]; 7-day pretreatment, STZ mice) | fasting blood insulin levels [1] | glucose intolerance (glucose tolerance test, GTT and AUC) [1] | fasting blood insulin levels (hyperinsulinemia) [2] | glucose intolerance (glucose tolerance test, GTT and AUC) [2] | treatment effects compared with oxytocin at the same dose [2] | intrinsic activity relative to natural oxytocin [3] | pancreatic insulin secretion (type-1 diabetic patients) | second-phase glucose-stimulated insulin secretion (GSIS) ([1]; blood insulin 20 min after glucose 3 g/kg i.p., 7-day pretreatment, STZ mice) | pancreatic insulin secretion (normal rats) | pancreatic insulin secretion (normal men) | insulin resistance ([2]; obesity-induced type-2 prediabetic mice, acute treatment) | obesity (obesity; chronic central or peripheral oxytocin treatment (25; 37)) | food intake (obesity; oxytocin treatment (37))
1 | [Ser4, Ile8]-oxytocin (CYISNCPIG; ends and bridges not checked; cysteine pairing not given here; UniProt P01178 20-28, looked up, variant Q4S L8I) [oxytocin analog: glutamine at position 4 substituted with serine, leucine at position 8 with isoleucine; Bachem Americas, Inc] | significantly higher levels of first-phase GSIS than non-treatment group | ameliorated circulating insulin insufficiency | significantly prevented STZ-induced glucose intolerance | significantly corrected | significantly corrected glucose intolerance | higher efficacy than oxytocin | – | – | – | – | – | – | – | –
2 | [Asu1,6]-oxytocin | appreciably improved | appreciably improved | appreciably improved | lowered fasting blood insulin levels | improved glucose intolerance | slightly weaker than oxytocin | ~70% | – | – | – | – | – | – | –
3 | CC[C@H](C)[C@@H]1NC(=O)[C@H](Cc2ccc(O)cc2)NC(=O)[C@@H](N)CSSC[C@@H](C(=O)N2CCC[C@H]2C(=O)N[C@@H](CC(C)C)C(=O)NCC(N)=O)NC(=O)[C@H](CC(N)=O)NC(=O)[C@H](CCC(N)=O)NC1=O [oxytocin, Cys-Tyr-Ile-Gln-Asn-Cys-Pro-Leu-Gly-NH2] | potentiated | protected fasting blood insulin levels | significantly improved glucose intolerance | significantly improved | significantly improved | – | – | can stimulate pancreatic insulin secretion | potentiated | can stimulate pancreatic insulin secretion | can stimulate pancreatic insulin secretion | can acutely reverse insulin resistance | can decrease obesity | decreases rather than increases food intake
